Assay type in all cases: in vivo
Assay [1] has as its system Diabrotica Balteata (Corn Root Worm). Put plainly: Example B1: Diabrotica balteata (corn root worm), maize sprouts sprayed, L2 larvae. Conditions: 96 h, read-out: control in at least one of the two categories (mortality or growth inhibition). Here is the method: Maize sprouts placed onto an agar layer in 24-well microtiter plates were treated with aqueous test solutions prepared from 10′000 ppm DMSO stock solutions by spraying. After drying, the plates were infested with L2 larvae (6 to 10 per well). The samples were assessed for mortality and growth inhibition in comparison to untreated samples 4 days after infestation.

Assay [2] has as its system Chilo suppressalis (Striped Rice Stemborer). Put plainly: Example B3: Chilo suppressalis (striped rice stemborer), artificial diet, L2 larvae. Conditions: 144 h, read-out: control in at least one of the three categories (mortality, anti-feedant effect, or growth inhibition). Here is the method:
24-well microtiter plates with artificial diet were treated with aqueous test solutions prepared from 10′000 ppm DMSO stock solutions by pipetting. After drying, the plates were infested with L2 larvae (6-8 per well). The samples were assessed for mortality, anti-feeding effect, and growth inhibition in comparison to untreated samples 6 days after infestation. Control of Chilo suppressalis by a test sample is given when at least one of the categories mortality, anti-feedant effect, and growth inhibition is higher than the untreated sample.

The test system of assay [3] is Spodoptera littoralis (Egyptian Cotton Leaf Worm). Nature of the assay: Example B7: Spodoptera littoralis (Egyptian cotton leaf worm), cotton leaf discs sprayed, L1 larvae. Conditions: foliar, 72 h, application rate of 200 ppm, 3 days after infestation, L1 larvae, read-out: control in at least one of the three categories (mortality, anti-feedant effect, or growth inhibition). Here is the method: Cotton leaf discs were placed onto agar in 24-well microtiter plates and sprayed with aqueous test solutions prepared from 10′000 ppm DMSO stock solutions. After drying the leaf discs were infested with five L1 larvae. The samples were assessed for mortality, anti-feeding effect, and growth inhibition in comparison to untreated samples 3 days after infestation. Control of Spodoptera littoralis by a test sample is given when at least one of the categories mortality, anti-feedant effect, and growth inhibition is higher than the untreated sample.

Assay [4] deals with Plutella xylostella (Diamond Back Moth). Nature of the assay: Example B4: Plutella xylostella (diamond back moth), artificial diet, eggs, 24-well. Conditions: 192 h, read-out: control in at least one of the two categories (mortality or growth inhibition). Here is the method:
24-well microtiter plates with artificial diet were treated with aqueous test solutions prepared from 10′000 ppm DMSO stock solutions by pipetting. After drying, Plutella eggs were pipetted through a plastic stencil onto a gel blotting paper and the plate was closed with it. The samples were assessed for mortality and growth inhibition in comparison to untreated samples 8 days after infestation.

[5] abbreviates: application rate of 200 ppm, 4 days after infestation, L2 larvae.
The mark [6] stands for this setting: application rate of 200 ppm, 6 days after infestation, L2 larvae.
[7] abbreviates: application rate of 200 ppm, 8 days after infestation, eggs.

The values that follow come from US20230002359A1, “PESTICIDALLY ACTIVE FUSED BICYCLIC HETEROAROMATIC COMPOUNDS” (priority 2019, published 2023).

Like-named read-outs stand apart in the source and are kept apart here.

Consider `CC(Nc1nc(Cl)nc2c(C(F)(F)F)cc(C(F)(F)F)cc12)c1ncnn1-c1ncccn1` (stereo not drawn) [P.25, 2-chloro-N-[1-(2-pyrimidin-2-yl-1,2,4-triazol-3-yl)ethyl]-6,8-bis(trifluoromethyl)quinazolin-4-amine], for which the percent control (mortality or growth inhibition) at 200 ppm in assay [1] (setting [5]) is ≥ 80%. For the same compound, the percent control (mortality, anti-feedant effect or growth inhibition) at 200 ppm in assay [2] (setting [6]) and in assay [3] was ≥ 80% throughout.
For `CC(Nc1ncnc2c(C(F)(F)F)cc(Cl)cc12)c1ncnn1-c1ccc(C#N)cn1` (stereo not drawn) [P.41, 6-[5-[1-[[6-chloro-8-(trifluoromethyl)quinazolin-4-yl]amino]ethyl]-1,2,4-triazol-1-yl]pyridine-3-carbonitrile], the percent control (mortality, anti-feedant effect or growth inhibition) at 200 ppm in assay [2] (setting [6]) and in assay [3] was ≥ 80% in each case. Also, in assay [4] (setting [7]), the percent control (mortality or growth inhibition) at 200 ppm is ≥ 80%.
Turning to `CC(Nc1ncnc2c(Br)cc(C(F)(F)F)cc12)c1ncnn1-c1ccc(C#N)cn1` (stereo not drawn) [P.42, 6-[5-[1-[[8-bromo-6-(trifluoromethyl)quinazolin-4-yl]amino]ethyl]-1,2,4-triazol-1-yl]pyridine-3-carbonitrile], the percent control (mortality, anti-feedant effect or growth inhibition) at 200 ppm in assay [2] (setting [6]) and in assay [3] was ≥ 80% throughout. The percent control (mortality or growth inhibition) at 200 ppm in assay [4] (setting [7]) is ≥ 80%.
On to `CC(Nc1ncnc2c(Cl)cc(C(F)(F)F)cc12)c1ncnn1-c1ccc(C#N)cn1` (stereo not drawn) [P.45, 6-[5-[1-[[8-chloro-6-(trifluoromethyl)quinazolin-4-yl]amino]ethyl]-1,2,4-triazol-1-yl]pyridine-3-carbonitrile], for which the percent control (mortality, anti-feedant effect or growth inhibition) at 200 ppm in assay [2] (setting [6]) and in assay [3] was ≥ 80% throughout. In addition, in assay [4] (setting [7]), the percent control (mortality or growth inhibition) at 200 ppm is ≥ 80%.
`C[C@H](c1ncnn1-c1ccc(C#N)cn1)N(C)c1ncnc2c(C(F)(F)F)cc(C(F)(F)F)cc12` [P.53, 6-[5-[(1R)-1-[[6,8-bis(trifluoromethyl)quina-zolin-4-yl]-methyl-amino]ethyl]-1,2,4-triazol-1-yl]pyridine-3-carbonitrile]: the percent control (mortality, anti-feedant effect or growth inhibition) at 200 ppm in assay [2] (setting [6]) and in assay [3] was ≥ 80% throughout. Also, the percent control (mortality or growth inhibition) at 200 ppm in assay [4] (setting [7]) was ≥ 80%.
Consider `CC(Nc1ncnc2c(Cl)cc(C(F)(F)F)cc12)c1nccnc1-c1ccc(C#N)cn1` (stereo not drawn) [P.121, 6-[3-[1-[[8-chloro-6-(trifluoromethyl)quinazolin-4-yl]amino]ethyl]pryazin-2-yl]pyridine-3-carbonitrile], for which the percent control (mortality, anti-feedant effect or growth inhibition) at 200 ppm in assay [2] (setting [6]) and in assay [3] was ≥ 80% each time.
With `CC(c1nccnc1-c1ccc(C#N)cn1)N(C)c1ncnc2c(C(F)(F)F)cc(Br)cc12` (stereo not drawn) [P.125, 6-[3-[1-[[6-bromo-8-(trifluoromethyl)quinazolin-4-yl]-methyl-amino]ethyl]pyrazin-2-yl]pyridine-3-carbonitrile], the percent control (mortality or growth inhibition) at 200 ppm in assay [4] (setting [7]) was ≥ 80%. Besides, the percent control (mortality, anti-feedant effect or growth inhibition) at 200 ppm in assay [3] is ≥ 80%.
For `CC(Nc1ncnc2c(Cl)c(F)c(Cl)cc12)c1ncnn1-c1ncccn1` (stereo not drawn) [P.166, 6,8-dichloro-7-fluoro-N-[1-(2-pyrimidin-2-yl-1,2,4-triazol-3-yl)ethyl]quinazolin-4-amine], the percent control (mortality or growth inhibition) at 200 ppm in assay [1] (setting [5]) is ≥ 80%. In addition, the percent control (mortality, anti-feedant effect or growth inhibition) at 200 ppm in assay [3] is ≥ 80%.
In the case of `CC(c1nccnc1-n1nccn1)N(C)c1ncnc2c(Br)cc(OC(F)(F)F)cc12` (stereo not drawn) [P.179, 8-bromo-N-methyl-N-[1-[3-(triazol-2-yl)pyrazin-2-yl]ethyl]-6-(trifluoromethoxy)quinazo-lin-4-amine], the percent control (mortality or growth inhibition) at 200 ppm in assay [1] (setting [5]) and in assay [4] (setting [7]) was ≥ 80% each time. Also, the percent control (mortality, anti-feedant effect or growth inhibition) at 200 ppm in assay [2] (setting [6]) is ≥ 80%.
On to `CC(c1nccnc1-n1nccn1)N(C)c1ncnc2c(OC(F)F)cc(Br)cc12` (stereo not drawn) [P.180, 6-bromo-8-(difluoromethoxy)-N-methyl-N-[1-[3-(triazol-2-yl)pyrazin-2-yl]ethyl]quinazolin-4-amine], for which the percent control (mortality or growth inhibition) at 200 ppm in assay [1] (setting [5]) and in assay [4] (setting [7]) was ≥ 80% in each case. Besides, the percent control (mortality, anti-feedant effect or growth inhibition) at 200 ppm in assay [2] (setting [6]) is ≥ 80%.
`CC(Nc1ncnc2c(Br)cc(C(F)(F)F)cc12)c1ncnn1-c1ccc(F)cn1` (stereo not drawn) [P.186, 8-bromo-N-[1-[2-(5-fluoro-2-pyridyl)-1,2,4-triazol-3-yl]ethyl]-6-(trifluoromethyl)quinazolin-4-amine]: the percent control (mortality or growth inhibition) at 200 ppm in assay [1] (setting [5]) and in assay [4] (setting [7]) was ≥ 80% each time. Moreover, the percent control (mortality, anti-feedant effect or growth inhibition) at 200 ppm in assay [2] (setting [6]) was ≥ 80%.
As to `CC(Nc1ncnc2c(C(F)(F)F)cc(C(F)(F)F)cc12)c1ncnn1-c1ccc(OC(F)F)cn1` (stereo not drawn) [P.193, N-[1-[2-[5-(difluoromethoxy)-2-pyridyl]-1,2,4-triazol-3-yl]ethyl]-6,8-bis(trifluoromethyl)quina-zolin-4-amine], the percent control (mortality or growth inhibition) at 200 ppm in assay [1] (setting [5]) and in assay [4] (setting [7]) was ≥ 80% each time. In assay [2] (setting [6]), the percent control (mortality, anti-feedant effect or growth inhibition) at 200 ppm was ≥ 80%.
As for `CC(Nc1ncnc2c(C(F)(F)F)cc(Br)cc12)c1ncnn1-c1ccc(OC(F)F)cn1` (stereo not drawn) [P.195, 6-bromo-N-[1-[2-[5-(difluoromethoxy)-2-pyridyl]-1,2,4-triazol-3-yl]ethyl]-8-(trifluoromethyl)quinazolin-4-amine], the percent control (mortality, anti-feedant effect or growth inhibition) at 200 ppm in assay [2] (setting [6]) and in assay [3] was ≥ 80% each time.
Take `C[C@@H](c1ncnn1-c1ccc(C#N)cn1)N(C)c1ncnc2c(C(F)(F)F)cc(Br)cc12` [P.204, 6-[5-[(1S)-1-[[6-bromo-8-(trifluoromethyl)quinazolin-4-yl]-methyl-amino]ethyl]-1,2,4-triazol-1-yl]pyridine-3-carbonitrile]: in assay [4] (setting [7]), the percent control (mortality or growth inhibition) at 200 ppm is ≥ 80%. In assay [3], the percent control (mortality, anti-feedant effect or growth inhibition) at 200 ppm was ≥ 80%.
For `COc1ccc(CN(c2ncnc3c(C(F)(F)F)cc(C(F)(F)F)cc23)C(C)c2nccnc2-c2ncccn2)cc1` (stereo not drawn) [P.225, N-[(4-methoxyphenyl)methyl]-N-[1-(3-pyrimidin-2-ylpyrazin-2-yl)ethyl]-6,8-bis(trifluoromethyl)quina-zolin-4-amine], the percent control (mortality or growth inhibition) at 200 ppm in assay [1] (setting [5]) and in assay [4] (setting [7]) was ≥ 80% throughout. Further, in assay [2] (setting [6]), the percent control (mortality, anti-feedant effect or growth inhibition) at 200 ppm is ≥ 80%.
In the case of `C[C@@H](c1ncnn1-c1ccc(C#N)cn1)N(C(=O)Oc1ccccc1)c1ncnc2c(C(F)(F)F)cc(C(F)(F)F)cc12` [P.226, phenyl N-[6,8-bis(trifluoromethyl)quina-zolin-4-yl]-N-[(1S)-1-[2-(5-cyano-2-pyridyl)-1,2,4-triazol-3-yl]ethyl]carbamate], the percent control (mortality or growth inhibition) at 200 ppm in assay [1] and in assay [4] was ≥ 80% in each case. In assay [2], the percent control (mortality, anti-feedant effect or growth inhibition) at 200 ppm is ≥ 80%.
As for `CC(Nc1ncnc2c(C(F)(F)F)cc(Cl)cc12)c1ncnn1-c1ccc(F)cn1` (stereo not drawn) [P.234, 6-chloro-N-[1-[2-(5-fluroo-2-pyridyl)-1,2,4-triazol-3-yl]ethyl]-8-(trifluoromethyl)quinazolin-4-amine], the percent control (mortality or growth inhibition) at 200 ppm in assay [1] (setting [5]) and in assay [4] (setting [7]) was ≥ 80% in each case. In addition, in assay [3], the percent control (mortality, anti-feedant effect or growth inhibition) at 200 ppm is ≥ 80%.
On to `CC(Nc1ncnc2c(Br)cc(OC(F)(F)F)cc12)c1ncnn1-c1ccc(C#N)cn1` (stereo not drawn) [P.246, 6-[5-[1-[[8-bromo-6-(trifluoromethoxy)quinazo-lin-4-yl]amino]ethyl]-1,2,4-triazol-1-yl]pyridine-3-carbonitrile], for which the percent control (mortality, anti-feedant effect or growth inhibition) at 200 ppm in assay [2] (setting [6]) and in assay [3] was ≥ 80% each time. In addition, the percent control (mortality or growth inhibition) at 200 ppm in assay [4] (setting [7]) is ≥ 80%.
As for `CC(c1nccnc1-c1ccc(C#N)cn1)N(C)c1ncnc2c(C(F)(F)F)cc(Cl)cc12` (stereo not drawn) [P.275, 6-[3-[1-[[6-chloro-8-(trifluoromethyl)quinazolin-4-yl]-methyl-amino]ethyl]pyrazin-2-yl]pyridine-3-carbonitrile], the percent control (mortality, anti-feedant effect or growth inhibition) at 200 ppm in assay [2] (setting [6]) and in assay [3] was ≥ 80% throughout.
